Data on eleven molecules can be found in US8901118B2, “Compounds and methods for kinase modulation, and indications therefor” (Plexxikon Inc., priority 2010, dated 2014).

For one assay, the target named is c-Kit kinase (Homo sapiens, UniProt P10721). Description: c-Kit kinase biochemical activity assay (AlphaScreen, biotin-(E4Y)10 phosphorylation). As to conditions: 100 μM ATP; read-out: Biochemical Inhibition IC50 Kit. In outline: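 Phosphorylation of 30 nM biotin-(E4Y)10 by c-Kit (0.75 ng per reaction) with 100 µM ATP in HEPES pH 7.5 buffer with Mg2+/Mn2+, 5% DMSO, 1 h at room temperature; 8-point 1:2 compound dilutions. AlphaScreen detection with streptavidin donor and PY20 acceptor beads after EDTA stop. IC50 from signal versus concentration.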
Chain of c-Kit kinase (P10721 26-976): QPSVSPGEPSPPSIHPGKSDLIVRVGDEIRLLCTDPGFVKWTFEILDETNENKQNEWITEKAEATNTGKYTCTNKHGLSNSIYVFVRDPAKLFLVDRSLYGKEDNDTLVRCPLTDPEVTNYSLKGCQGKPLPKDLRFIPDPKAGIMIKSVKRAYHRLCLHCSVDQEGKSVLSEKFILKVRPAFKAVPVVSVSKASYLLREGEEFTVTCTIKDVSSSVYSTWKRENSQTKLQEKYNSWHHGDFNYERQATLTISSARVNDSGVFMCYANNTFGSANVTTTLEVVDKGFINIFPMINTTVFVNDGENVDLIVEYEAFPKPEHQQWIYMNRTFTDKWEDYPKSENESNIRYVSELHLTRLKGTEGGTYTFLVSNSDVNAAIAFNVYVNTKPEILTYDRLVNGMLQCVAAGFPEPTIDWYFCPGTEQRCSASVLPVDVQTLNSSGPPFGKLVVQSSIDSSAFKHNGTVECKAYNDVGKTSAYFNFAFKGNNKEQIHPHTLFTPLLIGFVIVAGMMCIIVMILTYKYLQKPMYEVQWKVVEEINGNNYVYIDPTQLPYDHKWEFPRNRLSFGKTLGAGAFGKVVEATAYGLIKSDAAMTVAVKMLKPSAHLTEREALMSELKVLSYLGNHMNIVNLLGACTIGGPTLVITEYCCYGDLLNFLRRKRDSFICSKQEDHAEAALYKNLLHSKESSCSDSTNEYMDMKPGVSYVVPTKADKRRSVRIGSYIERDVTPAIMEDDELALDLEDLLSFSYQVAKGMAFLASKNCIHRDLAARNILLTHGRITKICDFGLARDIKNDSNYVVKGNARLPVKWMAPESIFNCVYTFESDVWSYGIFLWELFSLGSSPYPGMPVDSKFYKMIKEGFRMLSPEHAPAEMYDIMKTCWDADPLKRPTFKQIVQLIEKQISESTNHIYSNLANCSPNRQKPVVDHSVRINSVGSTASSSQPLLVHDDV

For a further assay, the target named is T1, Flt-3 kinase (Homo sapiens, UniProt P36888).
T1 sequence (P36888 27-993): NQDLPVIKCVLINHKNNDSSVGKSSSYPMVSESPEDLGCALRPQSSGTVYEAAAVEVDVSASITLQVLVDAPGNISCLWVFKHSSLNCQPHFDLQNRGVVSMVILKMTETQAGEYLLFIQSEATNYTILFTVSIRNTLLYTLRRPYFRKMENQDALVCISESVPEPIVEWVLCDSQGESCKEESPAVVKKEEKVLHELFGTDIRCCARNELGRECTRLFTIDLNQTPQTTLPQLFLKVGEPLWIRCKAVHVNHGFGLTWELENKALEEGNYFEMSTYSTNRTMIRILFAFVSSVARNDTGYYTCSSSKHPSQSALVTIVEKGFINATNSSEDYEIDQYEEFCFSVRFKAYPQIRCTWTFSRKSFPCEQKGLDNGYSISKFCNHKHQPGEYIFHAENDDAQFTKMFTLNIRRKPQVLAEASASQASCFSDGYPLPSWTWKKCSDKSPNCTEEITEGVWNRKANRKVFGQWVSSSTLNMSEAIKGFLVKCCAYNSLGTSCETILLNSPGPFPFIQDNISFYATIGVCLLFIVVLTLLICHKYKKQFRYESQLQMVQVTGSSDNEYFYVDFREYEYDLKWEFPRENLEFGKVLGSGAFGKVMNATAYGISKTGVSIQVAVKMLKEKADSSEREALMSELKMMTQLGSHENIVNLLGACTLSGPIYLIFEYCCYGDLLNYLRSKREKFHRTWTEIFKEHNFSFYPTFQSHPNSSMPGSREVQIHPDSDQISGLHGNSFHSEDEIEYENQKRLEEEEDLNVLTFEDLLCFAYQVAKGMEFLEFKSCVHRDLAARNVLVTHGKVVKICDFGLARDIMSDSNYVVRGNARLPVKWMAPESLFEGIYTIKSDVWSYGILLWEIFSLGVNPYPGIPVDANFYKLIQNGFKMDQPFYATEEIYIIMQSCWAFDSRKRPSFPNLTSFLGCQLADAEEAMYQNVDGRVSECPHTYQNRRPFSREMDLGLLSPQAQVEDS
Nature of the assay: Flt-3 kinase biochemical activity assay (AlphaScreen). As to conditions: 100 μM ATP; read-out: Biochemical Inhibition IC50 Flt3. Summed up:
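Recombinant kinase (1 ng/well) phosphorylated 30 nM biotin-(E4Y)10 with 100 μM ATP in Hepes pH 7.5 buffer with Mg/Mn, 5% DMSO, for 1 h at room temperature. EDTA-containing AlphaScreen streptavidin donor/PY20 acceptor beads detected phosphotyrosine; IC50 was derived from signal versus concentration.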

With `CCOc1ccc(Nc2ccc(C(=O)c3c[nH]c4ncnc(OC)c34)c(F)n2)cn1` [Compound P-4024, [6-(6-Ethoxy-pyridin-3-ylamino)-2-fluoro-pyridin-3-yl]-(4-methoxy-7H-pyrrolo[2,3-d]pyrimidin-5-yl)-methanone], the concentration for half-maximal inhibition (IC50) at c-Kit kinase was under 1000 nM; at Flt-3 kinase, under 100 nM.

Take `CCOc1ncnc2[nH]cc(C(=O)c3ccc(Nc4ccc(OC)nc4)nc3F)c12` [Compound P-4025, (4-Ethoxy-7H-pyrrolo[2,3-d]pyrimidin-5-yl)-[2-fluoro-6-(6-methoxy-pyridin-3-ylamino)-pyridin-3-yl]-methanone]: the IC50 is over 1000 nM at c-Kit kinase and under 1000 nM at Flt-3 kinase.

Turning to `CCOc1ccc(Nc2ccc(Cc3c[nH]c4ncnc(C5CC5)c34)c(F)n2)cn1` [Compound P-4026, [5-(4-Cyclopropyl-7H-pyrrolo[2,3-d]pyrimidin-5-ylmethyl)-6-fluoro-pyridin-2-yl]-(6-ethoxy-pyridin-3-yl)-amine], the results for the IC50 on c-Kit kinase and on Flt-3 kinase were under 1000 nM and under 100 nM, respectively.

For `CCOc1ccc(Nc2ccc(C(=O)c3c[nH]c4ncnc(C5CC5)c34)c(F)n2)cn1` [Compound P-4027, (4-Cyclopropyl-7H-pyrrolo[2,3-d]pyrimidin-5-yl)-[6-(6-ethoxy-pyridin-3-ylamino)-2-fluoro-pyridin-3-yl]-methanone], the results for the IC50 at c-Kit kinase and on Flt-3 kinase were under 100 nM and under 10 nM, respectively.

For the molecule `CCc1ccc(Nc2ccc(Cc3c[nH]c4ncnc(C5CC5)c34)c(F)n2)cn1` [Compound P-4028, [5-(4-Cyclopropyl-7H-pyrrolo[2,3-d]pyrimidin-5-ylmethyl)-6-fluoro-pyridin-2-yl]-(6-ethyl-pyridin-3-yl)-amine], the concentration for half-maximal inhibition (IC50) on c-Kit kinase and on Flt-3 kinase was under 100 nM throughout.

Consider `CCc1ccc(Nc2ccc(C(=O)c3c[nH]c4ncnc(C5CC5)c34)c(F)n2)cn1` [Compound P-4029, (4-Cyclopropyl-7H-pyrrolo[2,3-d]pyrimidin-5-yl)-[6-(6-ethyl-pyridin-3-ylamino)-2-fluoro-pyridin-3-yl]-methanone], for which the IC50 at c-Kit kinase is under 100 nM; on Flt-3 kinase, under 10 nM.

Consider `Cc1ccc(Nc2ccc(Cc3c[nH]c4ncnc(C5CC5)c34)c(F)n2)cn1` [Compound P-4030, [5-(4-Cyclopropyl-7H-pyrrolo[2,3-d]pyrimidin-5-ylmethyl)-6-fluoro-pyridin-2-yl]-(6-methyl-pyridin-3-yl)-amine], for which the half-inhibitory concentration (IC50) at c-Kit kinase and on Flt-3 kinase was under 1000 nM throughout.

Regarding `Cc1ccc(Nc2ccc(C(=O)c3c[nH]c4ncnc(C5CC5)c34)c(F)n2)cn1` [Compound P-4031, (4-Cyclopropyl-7H-pyrrolo[2,3-d]pyrimidin-5-yl)-[2-fluoro-6-(6-methyl-pyridin-3-ylamino)-pyridin-3-yl]-methanone], the IC50 at c-Kit kinase and at Flt-3 kinase was under 100 nM each time.

For the molecule `CCOc1ccc(Nc2ccc(C(=O)c3c[nH]c4ncnc(C)c34)c(F)n2)cn1` [Compound P-4032, [6-(6-Ethoxy-pyridin-3-ylamino)-2-fluoro-pyridin-3-yl]-(4-methyl-7H-pyrrolo[2,3-d]pyrimidin-5-yl)-methanone], the IC50 at c-Kit kinase and at Flt-3 kinase was under 100 nM in each case.

In the case of `CCn1cc(Nc2ccc(Cc3c[nH]c4ncnc(C5CC5)c34)c(F)n2)cn1` [Compound P-4036, [5-(4-Cyclopropyl-7H-pyrrolo[2,3-d]pyrimidin-5-ylmethyl)-6-fluoro-pyridin-2-yl]-(1-ethyl-1H-pyrazol-4-yl)-amine], the half-maximal inhibitory concentration (IC50) on c-Kit kinase was under 1000 nM; at Flt-3 kinase, over 1000 nM.

For `CCn1cc(Nc2ccc(C(=O)c3c[nH]c4ncnc(C5CC5)c34)c(F)n2)cn1` [Compound P-4037, (4-Cyclopropyl-7H-pyrrolo[2,3-d]pyrimidin-5-yl)-[6-(1-ethyl-1H-pyrazol-4-ylamino)-2-fluoro-pyridin-3-yl]-methanone], the concentration for half-maximal inhibition (IC50) on c-Kit kinase and at Flt-3 kinase was under 1000 nM each time.
